Results published in BindingDB's records for doi:10.7270/Q22V2DH9 (Nmmlsc, 2007).

Biological target: T1, N-formyl peptide receptor 2 (Homo sapiens, UniProt P25090)
T1 sequence (P25090 whole entry): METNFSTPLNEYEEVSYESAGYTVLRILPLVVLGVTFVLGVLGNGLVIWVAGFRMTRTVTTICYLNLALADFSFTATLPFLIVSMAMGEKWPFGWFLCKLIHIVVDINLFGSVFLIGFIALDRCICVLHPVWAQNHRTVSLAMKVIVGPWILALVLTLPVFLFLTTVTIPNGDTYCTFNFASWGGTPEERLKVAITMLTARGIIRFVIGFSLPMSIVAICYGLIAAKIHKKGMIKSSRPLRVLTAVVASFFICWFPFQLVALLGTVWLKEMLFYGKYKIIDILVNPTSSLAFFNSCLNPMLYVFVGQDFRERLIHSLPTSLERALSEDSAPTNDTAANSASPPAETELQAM
Assay: FPRL1 fluorescent ligand binding inhibitors, dose response, selectivity assay for FPR1 ligand SAR project, cell-based, flow cytometry, Ki from IC50 (AID 723)

| Structure (SMILES) | IC50 |
| --- | --- |
| N#Cc1c(N=C(CC(=O)c2ccccc2)C(=O)O)sc2c1CCC2 [(Z)-2-[(3-cyano-5,6-dihydro-4H-cyclopenta[b]thiophen-2-yl)amino]-4-keto-4-phenyl-but-2-enoic acid] | > 66.7 µM |
| COc1ccc(OC)c(CNC(=O)Cn2c(=O)sc3ccccc32)c1 [N-(2,5-dimethoxybenzyl)-2-(2-keto-1,3-benzothiazol-3-yl)acetamide] | > 66.7 µM |
| Cc1cccc(C)c1NC(=O)C(NC(=O)Cc1cccs1)c1ccccc1 (stereo not given) [N-(2,6-dimethylphenyl)-2-[(1-oxo-2-thiophen-2-ylethyl)amino]-2-phenylacetamide] | > 66.7 µM |
| CC(C)C(=O)N(Cc1ccco1)S(=O)(=O)c1cccc2cccnc12 [N-(2-furanylmethyl)-2-methyl-N-(8-quinolinylsulfonyl)propanamide] | > 66.7 µM |
| CCCC(=O)N(Cc1ccco1)S(=O)(=O)c1cccc2cccnc12 [N-(2-furanylmethyl)-N-(8-quinolinylsulfonyl)butanamide] | > 66.7 µM |
| COc1cccc(-c2ccnc3[nH]n(-c4ccccc4)c(=O)c23)c1 [UNM000003608001] | > 66.7 µM |
| CCc1cc2c(=O)c(-c3nc4ccccc4n3C)c(C)oc2cc1OC(C)=O [acetic acid [6-ethyl-2-methyl-3-(1-methyl-2-benzimidazolyl)-4-oxo-1-benzopyran-7-yl] ester] | > 66.7 µM |

The remaining lines, values ahead:

| IC50 | Structure (SMILES) |
| --- | --- |
| > 66.7 µM | O=C1NC(c2ccc(Br)cc2)C(C(=O)c2ccc(Cl)cc2)C1=O (stereo not given) [(4E)-5-(4-bromophenyl)-4-[(4-chlorophenyl)-hydroxy-methylene]pyrrolidine-2,3-quinone] |
| > 66.7 µM | Cc1ccc(C(=O)C2C(=O)C(=O)N(Cc3cccnc3)C2c2ccc(Br)cc2)cc1 (stereo not given) [(4E)-5-(4-bromophenyl)-4-[(4-methylphenyl)-oxidanyl-methylidene]-1-(pyridin-3-ylmethyl)pyrrolidine-2,3-dione] |
| > 66.7 µM | Cc1ccc(N2C(=O)C(=O)C(C(=O)c3ccccc3)C2c2cccc(F)c2)cc1Br (stereo not given) [(4Z)-1-(3-bromanyl-4-methyl-phenyl)-5-(3-fluorophenyl)-4-[oxidanyl(phenyl)methylidene]pyrrolidine-2,3-dione] |
| > 66.7 µM | CCCCCCN1C(=O)C(=O)C(C(=O)c2ccccc2)C1c1ccc(O)c(OC)c1 (stereo not given) [(4Z)-1-hexyl-5-(3-methoxy-4-oxidanyl-phenyl)-4-[oxidanyl(phenyl)methylidene]pyrrolidine-2,3-dione] |
| > 66.7 µM | COc1cccc(/C=C2/C(=O)NN(c3ccc(C)cc3)C2=O)c1 [(4Z)-4-[(3-methoxyphenyl)methylidene]-1-(4-methylphenyl)pyrazolidine-3,5-dione] |
| > 66.7 µM | COc1ccc(C(=O)C2C(=O)C(=O)NC2c2ccc(OC)cc2OC)cc1 (stereo not given) [(4Z)-5-(2,4-dimethoxyphenyl)-4-[(4-methoxyphenyl)-oxidanyl-methylidene]pyrrolidine-2,3-dione] |
| > 66.7 µM | CCCCCCOc1cccc(N2C(=O)C(=O)C(C(=O)c3ccccc3)C2c2cccc(F)c2)c1 (stereo not given) [(4Z)-5-(3-fluorophenyl)-1-(3-hexoxyphenyl)-4-[hydroxy(phenyl)methylene]pyrrolidine-2,3-quinone] |
| > 66.7 µM | O=C1C(=O)N(c2ccc(F)cc2)C(c2ccc(Br)cc2)C1C(=O)c1ccccc1 (stereo not given) [(4Z)-5-(4-bromophenyl)-1-(4-fluorophenyl)-4-[hydroxy(phenyl)methylene]pyrrolidine-2,3-quinone] |
